We go through 28 compounds from patent publication US20250195524A1, “PYRIMIDO-PYRIDAZINONE COMPOUND AS TOLL-LIKE RECEPTOR AGONIST” (SHANGHAI VISONPHARMA CO., LTD., priority 2022, published 2025).

For this assay, the target named is T1, human TLR8 (Homo sapiens, UniProt Q9NR97).
T1 construct: host or cells: HEK-Blue hTLR8 (HEK293-derived reporter cells)
T1 sequence (Q9NR97 27-1041): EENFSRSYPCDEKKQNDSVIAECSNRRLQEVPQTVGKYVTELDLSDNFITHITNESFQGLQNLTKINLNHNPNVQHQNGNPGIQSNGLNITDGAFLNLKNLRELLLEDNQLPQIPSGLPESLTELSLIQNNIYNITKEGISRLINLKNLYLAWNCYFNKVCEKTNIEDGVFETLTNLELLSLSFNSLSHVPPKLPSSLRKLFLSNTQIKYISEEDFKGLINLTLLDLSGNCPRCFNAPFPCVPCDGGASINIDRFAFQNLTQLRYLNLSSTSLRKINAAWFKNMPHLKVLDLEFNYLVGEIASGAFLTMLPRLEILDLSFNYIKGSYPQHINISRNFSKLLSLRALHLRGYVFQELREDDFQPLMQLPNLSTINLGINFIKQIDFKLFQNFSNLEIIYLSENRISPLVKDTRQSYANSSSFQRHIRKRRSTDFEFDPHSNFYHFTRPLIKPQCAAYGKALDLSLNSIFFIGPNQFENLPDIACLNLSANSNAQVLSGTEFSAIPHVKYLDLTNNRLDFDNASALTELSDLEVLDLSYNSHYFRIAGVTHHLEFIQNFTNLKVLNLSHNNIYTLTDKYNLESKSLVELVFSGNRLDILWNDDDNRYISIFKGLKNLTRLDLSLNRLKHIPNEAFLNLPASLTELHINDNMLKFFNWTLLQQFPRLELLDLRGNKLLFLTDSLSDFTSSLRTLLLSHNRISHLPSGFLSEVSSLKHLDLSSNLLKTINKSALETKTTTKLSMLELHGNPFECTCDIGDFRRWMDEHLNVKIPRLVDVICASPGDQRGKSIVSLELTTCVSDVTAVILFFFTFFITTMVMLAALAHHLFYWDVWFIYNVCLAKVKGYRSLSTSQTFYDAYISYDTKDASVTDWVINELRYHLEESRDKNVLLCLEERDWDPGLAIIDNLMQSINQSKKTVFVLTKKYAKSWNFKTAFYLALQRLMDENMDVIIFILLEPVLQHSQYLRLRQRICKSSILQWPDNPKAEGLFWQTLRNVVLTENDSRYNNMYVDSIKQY
As to the kind of experiment: HEK-Blue hTLR8 SEAP reporter gene agonism assay. It is filed as cell-based. Conditions: HEK-Blue hTLR8 cells, SEAP (Quanti-blue, 650 nm), 16-22 hours incubation. Here is the method:
The agonistic activity of the compounds of the present invention on TLR7 or TLR8 was evaluated using HEK-Blue™ cells stably expressing human TLR7 or TLR8. And the agonistic activity was assayed using their ability to induce the SEAP reporter gene under the control of the IFN-β minimal promoter fused to five NF-κB and ap-1 binding sites, specifically as follows:
HEK-Blue™ hTLR7 (Invivogen, 80,000 cells per well) or HEK-Blue™ hTLR8 (Invivogen, 60,000 cells per well) was added to a 96-well cell culture plate, the compound to be tested is added whereafter, and the final concentration of the compound(s) to be tested in the medium ranged from 0.001 to 36 μM, then incubated for 16-22 hours. SEAP levels in the cell culture medium were detected using HEK-Blue assay reagent Quanti-blue (Invivogen) according to the manufacturer's instructions. Neo2 Multifunctional Enzyme Labeler (Bio-tek) was used to determine the light absorption at 650 nm. GraphPad Prism was utilized to calculate the EC50, which is the half effective concentration of the drug.
For orientation: Reporter assays use an easily measured gene product as a stand-in for the process of interest.
In general, EC50 refers to the midpoint of the concentration-response curve. `CCCC(C)Nc1nc(N)nc2cnn(Cc3ccc(CN4CCCC4)cc3)c(=O)c12` (stereo not shown) [Compound I-1, 2-amino-4-(pentan-2-ylamino)-6-(4-(pyrrolidin-1-ylmethyl)benzyl)pyrimido[4,5-d]pyridazin-5(6H)-one] yielded an EC50 of 107 nM. That is a sub-micromolar value. The compound `CCCCNc1nc(N)nc2cnn(Cc3ccc(C(=O)N4CCNCC4)cc3)c(=O)c12` [Compound I-2, 2-amino-4-(butylamino)-6-(4-(piperazine-1-carbonyl)benzyl)pyrimido[4,5-d]pyridazin-5(6H)-one] showed an EC50 of 102 nM.

For the compound `CCCCNc1nc(N)nc2cnn(Cc3ccc(C(=O)N4CCN(C)CC4)cc3)c(=O)c12` [Compound I-3, 2-amino-4-(butylamino)-6-(4-(4-methylpiperazine-1-carbonyl)benzyl)pyrimido[4,5-d]pyridazin-5(6H)-one], it took 615 nM to reach a half-maximal effect (EC50). Regarding `COCCNc1nc(N)nc2cnn(Cc3ccc(CN4CCCC4)cc3)c(=O)c12` [Compound I-4, 2-amino-4-((2-methoxyethyl)amino)-6-(4-(pyrrolidin-1-ylmethyl)benzyl)pyrimido[4,5-d]pyridazin-5(6H)-one], the response was half-maximal at 403 nM (EC50).

As to `CCCCNc1nc(N)nc2cnn(Cc3ccc(CN4CCCC4)cc3)c(=O)c12` [Compound I-5, 2-amino-4-(butylamino)-6-(4-(pyrrolidin-1-ylmethyl)benzyl)pyrimido[4,5-d]pyridazin-5(6H)-one], the EC50 is 149 nM. In turn, `CCCCNc1nc(N)nc2cnn(Cc3ccc(CN(C)C)cc3)c(=O)c12` [Compound I-7, 2-amino-4-(butylamino)-6-(4-((dimethylamino)methyl)benzyl)pyrimido[4,5-d]pyridazin-5(6H)-one] registered an EC50 of 153 nM. With `CCCCNc1nc(N)nc2cnn(Cc3ccc4c(c3)CCNC4)c(=O)c12` [Compound I-8, 2-amino-4-(butylamino)-6-((1,2,3,4-tetrahydroisoquinolin-6-yl)methyl)pyrimido[4,5-d]pyridazin-5(6H)-one] the figure was 229 nM; with `CCCCNc1nc(N)nc2cnn(Cc3ccc(CN4CCNCC4)cc3)c(=O)c12` [Compound I-9, 2-amino-4-(butylamino)-6-(4-(piperazin-1-ylmethyl)benzyl)pyrimido[4,5-d]pyridazin-5(6H)-one], 183 nM.

`CCCCNc1nc(N)nc2cnn(Cc3ccc(CNC4CC4)cc3)c(=O)c12` [Compound I-10, 2-amino-4-(butylamino)-6-(4-((cyclopropylamino)methyl)benzyl)pyrimido[4,5-d]pyridazin-5(6H)-one]: the EC50 came out at 569 nM. Compared with the last compound, the EC50 is about 3.1-fold higher. Under `CCCCNc1nc(N)nc2cnn(Cc3ccc(CN4CC5CC(C4)N5)cc3)c(=O)c12` [Compound I-11, 6-(4-((3,6-Diazabicyclo[3.1.1]heptan-3-yl)methyl)benzyl)-2-amino-4-(butylamino)pyrimido[4,5-d]pyridazin-5(6H)-one] stands 267 nM. Under `CCCCNc1nc(N)nc2cnn(Cc3ccc(CN4CCC5(CNC5)C4)cc3)c(=O)c12` [Compound I-12, 6-(4-((2,6-Diazaspiro[3.4]octan-6-yl)methyl)benzyl)-2-amino-4-(butylamino)pyrimido[4,5-d]pyridazin-5(6H)-one] stands 185 nM; under `CCCCNc1nc(N)nc2cnn(Cc3ccc4c(c3)CCN(C(C)C)C4)c(=O)c12` [Compound I-13, 2-amino-4-(butylamino)-6-((2-isopropyl-1,2,3,4-tetrahydroisoquinolin-6-yl)methyl)pyrimido[4,5-d]pyridazin-5(6H)-one], 549 nM. Regarding `CCCCNc1nc(N)nc2cnn(Cc3ccc(CN4CCCC4)cc3OC)c(=O)c12` [Compound I-14, 2-amino-4-(butylamino)-6-(2-methoxy-4-(pyrrolidin-1-ylmethyl)benzyl)pyrimido[4,5-d]pyridazin-5(6H)-one], the half-maximal effective concentration (EC50) amounted to 365 nM.

Compound `CCCCNc1nc(N)nc2cnn(Cc3ccc(CN4CCCC4)cc3F)c(=O)c12` [Compound I-15, 2-amino-4-(butylamino)-6-(2-fluoro-4-(pyrrolidin-1-ylmethyl)benzyl)pyrimido[4,5-d]pyridazin-5(6H)-one] displayed an EC50 of 326 nM. With `CCCCNc1nc(N)nc2cnn(Cc3ccc(CN4CCCC4)nc3OC)c(=O)c12` [Compound I-16, 2-amino-4-(butylamino)-6-((2-methoxy-6-(pyrrolidin-1-ylmethyl)pyridin-3-yl)methyl)pyrimido[4,5-d]pyridazin-5(6H)-one] the figure was 354 nM; with `CCCCNc1nc(N)nc2cnn(Cc3ccc(CN4CCCC4)c(OC)c3)c(=O)c12` [Compound I-17, 2-amino-4-(butylamino)-6-(3-methoxy-4-(pyrrolidin-1-ylmethyl)benzyl)pyrimido[4,5-d]pyridazin-5(6H)-one], 368 nM; with `CCCCNc1nc(N)nc2cnn(Cc3ccc(CN4CCCC4)c(F)c3)c(=O)c12` [Compound I-18, 2-amino-4-(butylamino)-6-(3-fluoro-4-(pyrrolidin-1-ylmethyl)benzyl)pyrimido[4,5-d]pyridazin-5(6H)-one], 218 nM. Under `CCCCNc1nc(N)nc2cnn(Cc3ccc(CN(CCC)CCO)cc3)c(=O)c12` [Compound I-21] stands 388 nM; under `CCCCNc1nc(N)nc2cnn(Cc3ccc(CN(CCO)CCO)cc3)c(=O)c12` [Compound I-23, 2-amino-6-(4-((bis(2-hydroxyethyl)amino)methyl)benzyl)-4-(butylamino)pyrimido[4,5-d]pyridazin-5(6H)-one], 222 nM; under `CCC[C@@H](C)Nc1nc(N)nc2cnn(Cc3ccc(CN(CCC)CCO)cc3)c(=O)c12` [Compound I-26], 322 nM.

In turn, `CCC[C@@H](C)Nc1nc(N)nc2cnn(Cc3ccc(CN(CCO)CCO)cc3)c(=O)c12` [Compound I-27, (R)-2-amino-6-(4-((bis(2-hydroxyethyl)amino)methyl)benzyl)-4-(pentan-2-ylamino)pyrimido[4,5-d]pyridazin-5(6H)-one] registered an EC50 of 286 nM. With `CCC[C@@H](C)Nc1nc(N)nc2cnn(Cc3ccc(CN4CC5(COC5)C4)cc3)c(=O)c12` [Compound I-41, (R)-6-(4-((2-oxo-6-azaspiro[3.3]heptan-6-yl)methyl)benzyl)-2-amino-4-(pentan-2-ylamino)pyrimido[4,5-d]pyridazin-5(6H)-one] the figure was 101 nM; with `CCC[C@@H](C)Nc1nc(N)nc2cnn(Cc3ccc(CNCCO)cc3)c(=O)c12` [Compound I-42], 74 nM.

For the compound `CCC[C@@H](C)Nc1nc(N)nc2cnn(Cc3ccc(CN4CC5(COC5)C4)cc3OC)c(=O)c12` [Compound I-43, (R)-6-(4-((2-oxo-6-azaspiro[3.3]heptan-6-yl)methyl)-2-methoxybenzyl)-2-amino-4-(pentan-2-ylamino)pyrimido[4,5-d]pyridazin-5(6H)-one], it took 233 nM to reach a half-maximal effect (EC50). With `CCC[C@@H](C)Nc1nc(N)nc2cnn(Cc3ccc(CNCCO)cc3OC)c(=O)c12` [Compound I-44] the figure was 112 nM.

Compound `CCC[C@@H](C)Nc1nc(N)nc2cnn(Cc3ccc(C4CCNCC4)cc3)c(=O)c12` [Compound I-55, (R)-2-amino-4-(pentan-2-ylamino)-6-(4-(piperidin-4-yl)benzyl)pyrimido[4,5-d]pyridazin-5(6H)-one] showed an EC50 of 169 nM. Under `CCC[C@@H](C)Nc1nc(N)nc2cnn(Cc3ccc(C(=O)N4CCNCC4)cc3)c(=O)c12` [Compound I-56, (R)-2-amino-4-(pentan-2-ylamino)-6-(4-(piperazine-1-carbonyl)benzyl)pyrimido[4,5-d]pyridazin-5(6H)-one] stands 70 nM; under `CCC[C@@H](CO)Nc1nc(N)nc2cnn(Cc3ccc(C(=O)N4CCNCC4)cc3)c(=O)c12` [Compound I-58, (S)-2-amino-4-((1-hydroxypentan-2-yl)amino)-6-(4-(piperazine-1-carbonyl)benzyl)pyrimido[4,5-d]pyridazin-5(6H)-one], 73 nM.
